Tested on: Hepatitis B virus
Assay: Antiviral activity against HBV in human HepDE19 cells producing HBV cccDNA assessed as reduction in cccDNA production by measuring HBeAg level incubated for 24 hrs by ELISA
Type: functional, organism-based
Settings: HepDE19, 24 h

Row | Compound | IC50 [nM]
1 | O=C(O)COc1cc(-c2cc(=O)c3cccc(Cl)c3o2)ccc1C(F)(F)F | 320
2 | Cc1ccc(-c2cc(=O)c3cccc(Cl)c3o2)cc1O[C@H]1C[C@@H](C(=O)O)C1 | 490
3 | COc1c(-c2cc(=O)c3cccc(Cl)c3o2)ccc(Br)c1OC1CC(C(=O)O)C1 (stereo unspecified) | 190

Next, values leading:

Row | IC50 [nM] | Compound
4 | 133 | O=C(O)CCOc1cc(-c2cc(=O)c3cccc(Cl)c3o2)c(F)cc1Br
5 | 190 | COc1cc(OC)c(-c2cc(=O)c3cccc(Cl)c3o2)cc1OCCOC1CC(C(=O)O)C1 (stereo unspecified)
6 | 110 | CCOc1cc(Br)c(OCCC(=O)O)cc1-c1cc(=O)c2cccc(Cl)c2o1

— ChEMBL document CHEMBL4680364, “Substituted Chromen-4-one Derivatives for Treating Hepatitis B Virus Infection” (ACS Med Chem Lett, 2021)
